biological target: VEGFR-2 (Homo sapiens, UniProt P35968); test: VEGFR-2 inhibition rate test (kinase assay kit, colorimetric ELISA); conditions: concentration not given
Sequence (P35968 20-1356): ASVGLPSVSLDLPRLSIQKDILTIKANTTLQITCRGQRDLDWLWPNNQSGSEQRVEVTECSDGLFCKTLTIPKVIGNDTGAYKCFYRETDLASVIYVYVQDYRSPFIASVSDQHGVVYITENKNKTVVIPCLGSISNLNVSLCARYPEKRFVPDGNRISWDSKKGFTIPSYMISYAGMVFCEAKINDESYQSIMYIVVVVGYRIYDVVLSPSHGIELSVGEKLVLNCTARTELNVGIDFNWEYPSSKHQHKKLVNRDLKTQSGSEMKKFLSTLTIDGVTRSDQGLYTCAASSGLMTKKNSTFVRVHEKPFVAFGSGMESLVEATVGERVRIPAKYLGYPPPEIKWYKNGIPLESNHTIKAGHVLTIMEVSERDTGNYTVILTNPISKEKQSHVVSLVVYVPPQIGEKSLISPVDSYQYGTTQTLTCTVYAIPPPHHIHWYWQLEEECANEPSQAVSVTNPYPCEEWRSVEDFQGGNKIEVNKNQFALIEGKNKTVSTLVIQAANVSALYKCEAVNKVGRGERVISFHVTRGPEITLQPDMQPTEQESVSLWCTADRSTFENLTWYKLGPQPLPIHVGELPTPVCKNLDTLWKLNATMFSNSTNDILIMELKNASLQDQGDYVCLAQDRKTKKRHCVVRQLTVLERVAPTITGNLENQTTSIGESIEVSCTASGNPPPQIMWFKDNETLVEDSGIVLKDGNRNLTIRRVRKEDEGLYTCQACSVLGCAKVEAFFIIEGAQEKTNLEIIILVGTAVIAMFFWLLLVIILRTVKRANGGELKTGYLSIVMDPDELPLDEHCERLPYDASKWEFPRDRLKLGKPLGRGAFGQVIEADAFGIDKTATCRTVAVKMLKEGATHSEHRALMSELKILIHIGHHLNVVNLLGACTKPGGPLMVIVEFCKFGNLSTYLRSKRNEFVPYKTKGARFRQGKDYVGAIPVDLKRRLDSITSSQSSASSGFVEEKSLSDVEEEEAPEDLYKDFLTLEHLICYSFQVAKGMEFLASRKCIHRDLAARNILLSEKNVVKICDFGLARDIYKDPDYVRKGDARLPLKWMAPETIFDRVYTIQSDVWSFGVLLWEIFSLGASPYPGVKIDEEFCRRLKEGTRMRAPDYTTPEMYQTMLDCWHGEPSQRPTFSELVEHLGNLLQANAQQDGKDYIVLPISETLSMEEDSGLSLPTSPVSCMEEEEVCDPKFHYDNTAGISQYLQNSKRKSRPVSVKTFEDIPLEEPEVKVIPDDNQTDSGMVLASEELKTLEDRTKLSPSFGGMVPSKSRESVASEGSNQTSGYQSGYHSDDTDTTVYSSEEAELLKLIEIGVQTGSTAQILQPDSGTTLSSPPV

Row | Compound | Kinase inhibition rate (VEGFR-2)
1 | Fc1ccc(Nc2nnnc3ccccc23)cc1 [Example 2, 4-(4-fluoroanilino)-benzo[d][1,2,3]triazine] | −22.99
2 | CCCCOc1cc2nnnc(Nc3ccc(Cl)cc3)c2cc1OC [Example 16, 6-methoxy-7-n-butoxy-4-(4-chloroanilino)-benzo[d][1,2,3]triazine] | −12.03
3 | CCCCOc1cc2nnnc(Nc3cc(F)cc(F)c3)c2cc1OC [Example 14, 6-methoxy-7-n-butoxy-4-(3,5-difluoroanilino)-benzo[d][1,2,3]triazine] | −0.80
4 | CCCCOc1cc2nnnc(Nc3ccccc3)c2cc1OC [Example 11, 6-methoxy-7-butoxy-4-anilino-benzo[d][1,2,3]triazine] | −4.27
5 | Clc1cc(Cl)cc(Nc2nnnc3ccccc23)c1 [Example 10, 4-(3,5-dichloroanilino)-1,2,3-benzotriazine] | −2.67
6 | CCCCOc1cc2nnnc(Nc3ccc(F)cc3)c2cc1OC [Example 26, 6-methoxy-7-n-butoxy-4-(4-fluoroanilino)-benzo[d][1,2,3]triazine] | 9.89
7 | Fc1cc(Nc2nnnc3ccccc23)ccc1Br [Example 8, 4-(3-fluoro-4-bromoanilino)-benzo[d][1,2,3]triazine] | −6.95
8 | CCCCOc1cc2nnnc(Nc3cccc(C(F)(F)F)c3)c2cc1OC [Example 17, 6-methoxy-7-n-butoxy-4-(3-trifluoromethylanilino)-benzo[d][1,2,3]triazine] | −5.34
9 | Fc1cc(F)cc(Nc2nnnc3ccccc23)c1 [Example 5, 4-(3,5-difluoroanilino)-benzo[d][1,2,3]triazine] | −5.34
10 | Fc1ccc(Nc2nnnc3ccccc23)cc1C(F)(F)F [Example 9, 4-(3-trifluoromethyl-4-fluoroanilino)-benzo[d][1,2,3]triazine] | 1.60
11 | CCCCOc1cc2nnnc(Nc3ccc(Br)c(F)c3)c2cc1OC [Example 12, 6-methoxy-7-n-butoxy-4-(3-fluoro-4-bromoanilino)-benzo[d][1,2,3]triazine] | 9.09
12 | CCOc1cc2nnnc(Nc3ccccc3)c2cc1OC [Example 28, 6-methoxy-7-ethoxy-4-anilino-benzo[d][1,2,3]triazine] | 45.98
13 | Fc1ccc(Nc2nnnc3ccccc23)cc1Cl [Example 1, 4-(3-chloro-4-fluoroanilino)-benzo[d][1,2,3]triazine] | 3.47
14 | CCCCOc1cc2nnnc(Nc3ccc(C(F)(F)F)cc3)c2cc1OC [Example 18, 6-methoxy-7-n-butoxy-4-(4-trifluoromethylanilino)-benzo[d][1,2,3]triazine] | 3.20

Further lines, results first:

Row | Kinase inhibition rate (VEGFR-2) | Compound
15 | 21.14 | COc1cc2c(Nc3cccc(Cl)c3)nnnc2cc1OCCCCl [Example 71, 6-methoxy-7-chloropropoxy-4-(3-chloroanilino)-benzo[d][1,2,3]triazine]
16 | 7.75 | CCCCCOc1cc2nnnc(Nc3ccc(C)cc3)c2cc1OC [Example 60, 6-methoxy-7-pentyloxy-4-(4-methylanilino)-benzo[d][1,2,3]triazine]
17 | −5.61 | CCCCCOc1cc2nnnc(Nc3cccc(Br)c3)c2cc1OC [Example 58, 6-methoxy-7-pentyloxy-4-(3-bromoanilino)-benzo[d][1,2,3]triazine]
18 | −22.45 | CCCCCOc1cc2nnnc(Nc3ccccc3)c2cc1OC [Example 44, 6-methoxy-7-pentyloxy-4-anilino-benzo[d][1,2,3]triazine]
19 | 10.42 | CCCCCOc1cc2nnnc(Nc3ccccc3F)c2cc1OC [Example 57, 6-methoxy-7-pentyloxy-4-(2-fluoroanilino)-benzo[d][1,2,3]triazine]
20 | 3.20 | CCCCCOc1cc2nnnc(Nc3cccc(Cl)c3)c2cc1OC [Example 54, 6-methoxy-7-pentyloxy-4-(3-chloroanilino)-benzo[d][1,2,3]triazine]
21 | 2.13 | CCCCCOc1cc2nnnc(Nc3cccc(OC(F)(F)F)c3)c2cc1OC [Example 52, 6-methoxy-7-pentyloxy-4-(3-trifluoromethoxyanilino)-benzo[d][1,2,3]triazine]
22 | −0.53 | CCCCCOc1cc2nnnc(Nc3cc(Cl)cc(Cl)c3)c2cc1OC [Example 46, 6-methoxy-7-pentyloxy-4-(3,5-dichloroanilino)-benzo[d][1,2,3]triazine]
23 | 10.73 | COc1cc2c(Nc3cc(F)cc(F)c3)nnnc2cc1OCCCCl [Example 64, 6-methoxy-7-chloropropoxy-4-(3,5-difluoroanilino)-benzo[d][1,2,3]triazine]
24 | 43.56 | CCOc1cc2nnnc(Nc3ccc(C)cc3)c2cc1OC [Example 43, 6-methoxy-7-ethoxy-4-(4-methylanilino)-benzo[d][1,2,3]triazine]

test system: Rat aortic ring; test: Rat Aortic Ring Assay; format: cell-based; conditions: Rattus norvegicus; 10 ug/ml, compared with blank control, sixth day
From the text: Rat Aortic Ring Assay • 1) 6 week old SD […] (Sprague Dawley) were selected for the experiments. Cleaned abdominal skin with 75% ethanol to disinfect, and then anesthetized the mice with ether, • 2) Carefully removed the abdominal aortas and transferred the aortas to normal saline. Excessive vascular tissues were carefully removed with scissors. • 3) The aortas were rinsed with normal saline until no blood stain remained. • 4) Sectioned the aortas into one millimeter depth arterial slices with ophthalmological scissors. • 5) Add 50 μL pre-thawed Matrigel to each well of the pre-cooled 96 well cell culture plates, and embedded the ring-shaped mouse aortas in collagen gel. • 6) Incubated for 60 minutes at 37° C. to solidificate the gel. • 7) Added DMEM culture solution containing 10% FBS, along with different concentrations of the selected compounds into the wells and cultured in the incubator. Every compound was repeated in no less than 3 wells. • 8) Replaced with the fresh medium and changed the medicine once on the third day. • 9) Took out the pates on the sixth day, and observed the vascular growth with Microscope (OLYMPUS, DP70, Japan) and took photographs(×100). Randomly chose 3 arterial rings to photograph and calculated the area covered by micro-vascular with Image Pro Plus software. The inhibition rate is calculated as:
[formula] • Evaluation criteria: ⋆inhibition rate[…]; ⋆⋆inhibition rate 60-90%; ⋆⋆⋆inhibition rate>90%.

Row | Compound | inhibition at 10 µg/mL [%]
25 | CCOc1cc2nnnc(Nc3ccc(C(F)(F)F)cc3)c2cc1OC [Example 35, 6-methoxy-7-ethoxy-4-(4-trifluoromethylanilino)-benzo[d][1,2,3]triazine] | ~40
26 | CCOc1cc2nnnc(Nc3ccccc3)c2cc1OC [Example 28, 6-methoxy-7-ethoxy-4-anilino-benzo[d][1,2,3]triazine] | ~40
27 | COc1cc2c(Nc3cc(F)cc(F)c3)nnnc2cc1OCCCCl [Example 64, 6-methoxy-7-chloropropoxy-4-(3,5-difluoroanilino)-benzo[d][1,2,3]triazine] | > 50

same assay, conditions: compared with blank control, sixth day

Row | Compound | Rat Aortic Ring Assay (10 ug/ml), inhibition
28 | COc1cc2c(Nc3ccc(F)c(Cl)c3)nnnc2cc1OCCCN1CCN(C)CC1.Cl [Example 96, 6-methoxy-7-(3-N-methylpiperazin-1-yl-propoxy)-4-(3-chloro-4-fluoroanilino)-benzo[d][1,2,3]triazin-4-amine hydrochloride] | Vessel formation became less, about 30% inhibition

same assay, conditions: observed on the sixth day

Row | Compound | Rat Aortic Ring Assay (10 ug/ml), result in words
29 | COc1cc2c(Nc3ccc(F)c(Cl)c3)nnnc2cc1OCCCN1CCOCC1 [Example 94, 6-methoxy-7-(3-morpholinopropoxy)-4-(3-chloro-4-fluoroanilino)-benzo[d][1,2,3]triazine] | No significant inhibition
30 | COc1cc2c(Nc3ccc(F)c(Cl)c3)nnnc2cc1OCCCN1CCCCC1.Cl [Example 95, 6-methoxy-7-(3-(piperidin-1-yl)-propoxy)-4-(3-chloro-4-fluoroanilino)-benzo[d][1,2,3]triazine hydrochloride] | Vascular growth was significantly inhibited, vascular ring was dead.
31 | CCCCOc1cc2nnnc(Nc3cccc(C(F)(F)F)c3)c2cc1OC [Example 17, 6-methoxy-7-n-butoxy-4-(3-trifluoromethylanilino)-benzo[d][1,2,3]triazine] | No significant inhibition compared with the blank control
32 | CCOc1cc2nnnc(Nc3ccc(C)cc3)c2cc1OC [Example 43, 6-methoxy-7-ethoxy-4-(4-methylanilino)-benzo[d][1,2,3]triazine] | No significant inhibition
33 | CCCCOc1cc2nnnc(Nc3ccc(C(F)(F)F)cc3)c2cc1OC [Example 18, 6-methoxy-7-n-butoxy-4-(4-trifluoromethylanilino)-benzo[d][1,2,3]triazine] | No significant inhibition
